Results: patent publication US12180187B2, “1-phenyl-5-azinylpyrazolyl-3-oxyalkyl acids and their use for controlling unwanted plant growth” (BAYER AKTIENGESELLSCHAFT, priority 2019, dated 2024)

Tests used:
[1] = test system: AMARE; experiment: Pre-emergence action against AMARE, 1280 g/ha; assay type: in vivo, Amaranthus retroflexus; conditions: scored visually after about 3 weeks vs untreated controls (100% = plants have died)
Method in brief: (§1)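 Greenhouse pre-emergence test on sown seeds in sandy loam; soil-surface spray of formulated compound with 0.5% additive at 600 L/ha water. Scored visually, % vs untreated, after about 3 weeks.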

[2] = test system: POAAN; experiment: Post-emergence action against POAAN, 1.28 kg/ha; assay type: in vivo, Poa annua; conditions: dosage 1280 g/ha, visual rating about 3 weeks after treatment vs untreated controls
Method in brief: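 Greenhouse pot test, sandy loam; weeds sprayed post-emergence at one-leaf stage (2–3 weeks after sowing) with WP or EC formulation plus 0.5% additive, 600 l/ha water. Visual rating after about 3 weeks versus untreated controls, 100% = plants dead, 0% = like control.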

[3] = test system: MATIN; experiment: Pre-emergence action at 320 g/ha against MATIN; assay type: in vivo, Tripleurospermum inodorum (Matricaria inodora); conditions: visual scoring after about 3 weeks vs untreated controls
Method in brief: (§2)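 Visual scoring in percent against untreated controls, about 3 weeks after treatment, where 100% means dead plants and 0% means no difference. Compounds were applied as aqueous suspension or emulsion (WP or EC, plus 0.5% additive) onto soil covering freshly sown seeds, at 600 l/ha water.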

[4] = test system: AMARE; experiment: Pre-emergence action at 320 g/ha against AMARE; assay type: in vivo, Amaranthus retroflexus; conditions: visual scoring after about 3 weeks vs untreated controls
Method in brief: as §2

[5] = test system: ALOMY; experiment: Pre-emergence action at 320 g/ha against ALOMY; assay type: in vivo, Alopecurus myosuroides; conditions: scored visually after about 3 weeks vs untreated controls (100% = plants have died)
Method in brief: as §2

[6] = test system: ECHCG; experiment: Pre-emergence action against ECHCG, 1280 g/ha; assay type: in vivo, Echinochloa crus-galli; conditions: visual scoring after about 3 weeks vs untreated controls, 100% = plants have died, 0% = like control plants
Method in brief: as §1

[7] = test system: STEME; experiment: Pre-emergence action against STEME, 1280 g/ha; assay type: in vivo, Stellaria media; conditions: scored visually after about 3 weeks vs untreated controls (100% = plants have died)
Method in brief: as §1

[8] = test system: DIGSA; experiment: Pre-emergence action at 320 g/ha against DIGSA; assay type: in vivo, Digitaria sanguinalis; conditions: visual scoring after about 3 weeks vs untreated controls
Method in brief: as §2

[9] = test system: POLCO; experiment: Post-emergence action at 320 g/ha against POLCO; assay type: in vivo, Fallopia convolvulus (Polygonum convolvulus); conditions: visual rating about 3 weeks after treatment vs untreated controls
Method in brief: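 Activity is a visual rating against untreated controls, with 0% like control and 100% dead plants, made about 3 weeks after treatment. Plants grown in sandy loam in the greenhouse received a post-emergence spray at the one-leaf stage of 320 g/ha, formulated as WP or EC with 0.5% additive in 600 l/ha water.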

[10] = test system: POAAN; experiment: Pre-emergence action against POAAN, 1280 g/ha; assay type: in vivo, Poa annua; conditions: visual scoring after about 3 weeks vs untreated controls, 100% = plants have died, 0% = like control plants
Method in brief: as §1

[11] = test system: POLCO; experiment: Pre-emergence action at 320 g/ha against POLCO; assay type: in vivo, Fallopia convolvulus (Polygonum convolvulus); conditions: visual scoring after about 3 weeks vs untreated controls
Method in brief: as §2

[12] = test system: SETVI; experiment: Pre-emergence action against SETVI, 1280 g/ha; assay type: in vivo, Setaria viridis; conditions: visual scoring after about 3 weeks vs untreated controls, 100% = plants have died, 0% = like control plants
Method in brief: as §1

[13] = test system: MATIN; experiment: Pre-emergence action against MATIN, 1280 g/ha; assay type: in vivo, Tripleurospermum inodorum (Matricaria inodora); conditions: scored visually after about 3 weeks vs untreated controls (100% = plants have died)
Method in brief: as §1

[14] = test system: SETVI; experiment: Pre-emergence action at 320 g/ha against SETVI; assay type: in vivo, Setaria viridis; conditions: visual scoring after about 3 weeks vs untreated controls
Method in brief: as §2

[15] = Tripleurospermum inodorum, 504 h

SMILES	Pre-emergence action against AMARE [1] [%]	Post-emergence action against POAAN [2] [%]	Pre-emergence action against MATIN in % [3] [%]	Pre-emergence action against AMARE in % [4] [%]	Pre-emergence action at 320 g/ha against ALOMY in % [5] [%]	Pre-emergence action against ECHCG [6] [%]	Pre-emergence action against STEME [7] [%]	Pre-emergence action against DIGSA in % [8] [%]	Post-emergence action against POLCO in % [9] [%]	Pre-emergence action against POAAN [10] [%]	Pre-emergence action against POLCO in % [11] [%]	Pre-emergence action against SETVI [12] [%]	Pre-emergence action against MATIN [13] [%]	Pre-emergence action against SETVI in % [14] [%]	also measured
COC(=O)C(C)Oc1nn(-c2ccccc2)c(-c2cccnc2)c1Cl (stereo not drawn) [VII-032]	100	100	90	100	100	100	100	90	80	100	90	100	90	90	
COC(=O)COc1nn(-c2ccccc2F)c(-c2cncc(F)c2)c1Br [VII-035]	100	100	100	100	100	100	100	100	90	100	90	100	100	100	
COC(=O)COc1nn(-c2ccccc2F)c(-c2ccc(F)nc2)c1F [VII-040]	100	100	100	100	100	100	100	100	90	100	90	100	100	100	
COC(=O)CCOC(=O)COc1nn(-c2ccccc2F)c(-c2ccc(F)nc2)c1Br [VII-111]	100	100	90	100	100	100	100	100	90	100	90	100	100	100	
CCOC(=O)COc1nn(-c2ccccc2F)c(-c2ccnc(F)c2)c1Br [VIII-003, Ethyl {[4-bromo-1-(2-fluorophenyl)-5-(2-fluoropyridin-4-yl)-1H-pyrazol-3-yl]oxy}acetate]															pest or weed control at 1280 g/ha ([1]; Amaranthus retroflexus, 504 h): 100%; pest or weed control at 1280 g/ha ([2]; Poa annua, 504 h): 100%; pest or weed control at 320 g/ha [3, 15]: 90%; pest or weed control at 320 g/ha ([4]; Amaranthus retroflexus, 504 h): 90%; pest or weed control at 320 g/ha ([5]; Alopecurus myosuroides, 504 h): 100%; pest or weed control at 1280 g/ha ([6]; Echinochloa crus-galli, 504 h): 100%; pest or weed control at 1280 g/ha ([7]; Stellaria media, 504 h): 100%; pest or weed control at 320 g/ha ([8]; Digitaria sanguinalis, 504 h): 100%; pest or weed control at 320 g/ha ([9]; Fallopia convolvulus, 504 h): 80%; pest or weed control at 1280 g/ha ([10]; Poa annua, 504 h): 100%; pest or weed control at 320 g/ha ([11]; Fallopia convolvulus, 504 h): 100%; pest or weed control at 1280 g/ha ([12]; Setaria viridis, 504 h): 100%; pest or weed control at 1280 g/ha [13, 15]: 100%; pest or weed control at 320 g/ha ([14]; Setaria viridis, 504 h): 100%
O=C(O)COc1nn(-c2ccccc2F)c(-c2ccnc(F)c2)c1Br [VIII-004]	100	100	90	100	100	100	100	100	80	100	90	100	100	90	
